The numbers were not newly measured in patent US5583105A, “Oral pharmaceutical preparation” (Biogal Gyogyszerguar Rt, priority 1994, dated 1996), which cites them from elsewhere.

The conditions of this data set: in water.

Regarding `CCOC(=O)CC(O)(CC(=O)OCC)C(=O)OCC` [triethylcitrate, triethyl-citrate], the “concentration of aqueous solution formed” value is reported as 6.5%.
